Source: US20260144788A1, “COMPOUND FOR SHP2 PROTEIN DEGRADATION AND MEDICAL USES THEREOF” (UBIX THERAPEUTICS, INC., priority 2022, published 2026)

Target: T1, SHP2 protein (Homo sapiens, UniProt Q06124)
T1 sequence (Q06124 1-593): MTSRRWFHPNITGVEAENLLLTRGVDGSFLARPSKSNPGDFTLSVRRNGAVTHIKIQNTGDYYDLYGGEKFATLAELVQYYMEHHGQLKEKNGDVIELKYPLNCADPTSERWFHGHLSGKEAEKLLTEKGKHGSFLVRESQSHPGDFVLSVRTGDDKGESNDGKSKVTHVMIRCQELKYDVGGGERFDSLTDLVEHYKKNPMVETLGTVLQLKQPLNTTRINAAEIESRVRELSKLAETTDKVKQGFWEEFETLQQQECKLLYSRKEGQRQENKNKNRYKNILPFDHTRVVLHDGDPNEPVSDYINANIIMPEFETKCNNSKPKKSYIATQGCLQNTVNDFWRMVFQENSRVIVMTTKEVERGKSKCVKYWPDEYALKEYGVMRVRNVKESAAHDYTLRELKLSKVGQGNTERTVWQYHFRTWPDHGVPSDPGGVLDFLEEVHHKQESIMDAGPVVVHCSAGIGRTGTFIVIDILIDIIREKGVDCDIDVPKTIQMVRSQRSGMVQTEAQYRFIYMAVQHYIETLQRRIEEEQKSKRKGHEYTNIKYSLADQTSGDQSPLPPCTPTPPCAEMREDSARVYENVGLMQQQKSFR
Assay: Measurement of SHP2 protein degradation in MV-4-11 cells (western blotting)
Assay type: cell-based
Parameters: endogenous in cells
Details: harvested after 24 hours
How it was run: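 MV-4-11 cells in IMDM/5% FBS were exposed to compound at final 0.01, 0.1, 1 μM or 0.001, 0.01, 0.1 μM for 24 h, DMSO as negative control. BCA-normalised lysates were immunoblotted for SHP2 with GAPDH as loading control, read on LI-COR Odyssey.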

| SMILES | SHP2% degradation (0.01 μM) | SHP2% degradation (0.1 μM) |
| --- | --- | --- |
| CC(=O)N[C@H](C(=O)N1C[C@H](O)C[C@H]1C(=O)NCc1ccc(-c2scnc2C)cc1O[C@H]1CC[C@H](C(=O)N2CC(Nc3cccc(Sc4cnc(N5CCC(C)(CN)CC5)cn4)c3Cl)C2)CC1)C(C)(C)C [Example 27, (2S,4R)-1-((S)-2-acetamido-3,3-dimethylbutanoyl)-N-(2-(((1R,4S)-4-(3-((3-((5-(4-(aminomethyl)-4-methylpiperidin-1-yl)pyrazin-2-yl)thio)-2-chlorophenyl)amino)azetidine-1-carbonyl)cyclohexyl)oxy)-4-(4-methylthiazol-5-yl)benzyl)-4-hydroxypyrrolidine-2-carboxamide] | 95.8% | 99.9% |
| CC(=O)N[C@H](C(=O)N1C[C@H](O)C[C@H]1C(=O)NCc1ccc(-c2scnc2C)cc1O[C@H]1CC[C@H](C(=O)N2CC(Nc3cccc(Sc4cnc(N5CCC6(CC5)CO[C@@H](C)[C@H]6N)cn4)c3Cl)C2)CC1)C(C)(C)C [Example 29, (2S,4R)-1-((S)-2-acetamido-3,3-dimethylbutanoyl)-N-(2-(((1r,4S)-4-(3-((3-((5-((3S,4S)-4-amino-3-methyl-2-oxa-8-azaspiro[4.5]decan-8-yl)pyrazin-2-yl)thio)-2-chlorophenyl)amino)azetidine-1-carbonyl)cyclohexyl)oxy)-4-(4-methylthiazol-5-yl)benzyl)-4-hydroxypyrrolidine-2-carboxamide] | 97.2% | 99.9% |
| CC(=O)N[C@H](C(=O)N1C[C@H](O)C[C@H]1C(=O)NCc1ccc(-c2scnc2C)cc1O[C@H]1CC[C@H](C(=O)N2CC(Nc3cccc(Sc4cnc(N5CCC6(CC5)Cc5ccccc5[C@H]6N)cn4)c3Cl)C2)CC1)C(C)(C)C [Example 30, (2S,4R)-1-((S)-2-acetamido-3,3-dimethylbutanoyl)-N-(2-(((1R,4S)-4-(3-((3-((5-((S)-1-amino-1,3-dihydrospiro[indene-2,4′-piperidin]-1′-yl)pyrazin-2-yl)thio)-2-chlorophenyl)amino)azetidine-1-carbonyl)cyclohexyl)oxy)-4-(4-methylthiazol-5-yl)benzyl)-4-hydroxypyrrolidine-2-carboxamide] | 86.1% | 99.9% |
| CC(=O)N[C@H](C(=O)N1C[C@H](O)C[C@H]1C(=O)NCc1ccc(-c2scnc2C)cc1O[C@H]1CC[C@H](C(=O)N2CC(Nc3nccc(Sc4cnc(N5CCC(C)(CN)CC5)cn4)c3Cl)C2)CC1)C(C)(C)C [Example 38, (2S,4R)-1-((S)-2-acetamido-3,3-dimethylbutanoyl)-N-(2-(((1R,4S)-4-(3-((4-((5-(4-(aminomethyl)-4-methylpiperidin-1-yl)pyrazin-2-yl)thio)-3-chloropyridin-2-yl)amino)azetidine-1-carbonyl)cyclohexyl)oxy)-4-(4-methylthiazol-5-yl)benzyl)-4-hydroxypyrrolidine-2-carboxamide] | 97.7% | 99.5% |
| CC(=O)N[C@H](C(=O)N1C[C@H](O)C[C@H]1C(=O)NCc1ccc(-c2scnc2C)cc1O[C@H]1CC[C@H](C(=O)N2CCC(Nc3nccc(Sc4cnc(N5CCC(C)(CN)CC5)cn4)c3Cl)CC2)CC1)C(C)(C)C [Example 41, (2S,4R)-1-((S)-2-acetamido-3,3-dimethylbutanoyl)-N-(2-(((1R,4S)-4-(4-((4-((5-(4-(aminomethyl)-4-methylpiperidin-1-yl)pyrazin-2-yl)thio)-3-chloropyridin-2-yl)amino)piperidine-1-carbonyl)cyclohexyl)oxy)-4-(4-methylthiazol-5-yl)benzyl)-4-hydroxypyrrolidine-2-carboxamide] | 98.2% | 99. % |
| Cc1ncsc1-c1ccc(CNC(=O)[C@@H]2C[C@@H](O)CN2C(=O)[C@@H](NC(=O)C2(F)CC2)C(C)(C)C)c(OCCN2CCC(C(=O)N3CC(Nc4cccc(Sc5cnc(N6CCC(C)(CN)CC6)cn5)c4Cl)C3)CC2)c1 [Example 50, (2S,4R)—N-(2-(2-(4-(3-((3-((5-(4-(aminomethyl)-4-methylpiperidin-1-yl)pyrazin-2-yl)thio)-2-chlorophenyl)amino)azetidine-1-carbonyl)piperidin-1-yl)ethoxy)-4-(4-methylthiazol-5-yl)benzyl)-1-((S)-2-(1-fluorocyclopropane-1-carboxamido)-3,3-dimethylbutanoyl)-4-hydroxypyrrolidine-2-carboxamide] | 67.3% | 97.6% |
| Cc1ncsc1-c1ccc(CNC(=O)[C@@H]2C[C@@H](O)CN2C(=O)[C@@H](NC(=O)C2(F)CC2)C(C)(C)C)c(OCCN2CCC(C(=O)N3CCC(Nc4cccc(Sc5cnc(N6CCC(C)(CN)CC6)cn5)c4Cl)CC3)CC2)c1 [Example 51, (2S,4R)—N-(2-(2-(4-(4-((3-((5-(4-(aminomethyl)-4-methylpiperidin-1-yl)pyrazin-2-yl)thio)-2-chlorophenyl)amino)piperidine-1-carbonyl)piperidin-1-yl)ethoxy)-4-(4-methylthiazol-5-yl)benzyl)-1-((S)-2-(1-fluorocyclopropane-1-carboxamido)-3,3-dimethylbutanoyl)-4-hydroxypyrrolidine-2-carboxamide] | 32.9% | 92.6% |
| Cc1ncsc1-c1ccc(CNC(=O)[C@@H]2C[C@@H](O)CN2C(=O)[C@@H](NC(=O)C2(F)CC2)C(C)(C)C)c(OCCN2CCC(C(=O)N3CCN(c4nccc(Sc5cnc(N6CCC(C)(CN)CC6)cn5)c4Cl)CC3)CC2)c1 [Example 52, (2S,4R)—N-(2-(2-(4-(4-(4-((5-(4-(aminomethyl)-4-methylpiperidin-1-yl)pyrazin-2-yl)thio)-3-chloropyridin-2-yl)piperazine-1-carbonyl)piperidin-1-yl)ethoxy)-4-(4-methylthiazol-5-yl)benzyl)-1-((S)-2-(1-fluorocyclopropane-1-carboxamido)-3,3-dimethylbutanoyl)-4-hydroxypyrrolidine-2-carboxamide] | 20.5% | 91.9% |
| Cc1ncsc1-c1ccc(CNC(=O)[C@@H]2C[C@@H](O)CN2C(=O)[C@@H](NC(=O)C2(F)CC2)C(C)(C)C)c(OCCN2CCN(C(=O)C3CN(c4nccc(Sc5cnc(N6CCC(C)(CN)CC6)cn5)c4Cl)C3)CC2)c1 [Example 53, (2S,4R)—N-(2-(2-(4-(1-(4-((5-(4-(aminomethyl)-4-methylpiperidin-1-yl)pyrazin-2-yl)thio)-3-chloropyridin-2-yl)azetidine-3-carbonyl)piperazin-1-yl)ethoxy)-4-(4-methylthiazol-5-yl)benzyl)-1-((S)-2-(1-fluorocyclopropane-1-carboxamido)-3,3-dimethylbutanoyl)-4-hydroxypyrrolidine-2-carboxamide] | 70.4% | 99.4% |
| Cc1ncsc1-c1ccc(CNC(=O)[C@@H]2C[C@@H](O)CN2C(=O)[C@@H](NC(=O)C2(F)CC2)C(C)(C)C)c(OCCN2CCN(C(=O)C3CCN(c4nccc(Sc5cnc(N6CCC(C)(CN)CC6)cn5)c4Cl)CC3)CC2)c1 [Example 54, (2S,4R)—N-(2-(2-(4-(1-(4-((5-(4-(aminomethyl)-4-methylpiperidin-1-yl)pyrazin-2-yl)thio)-3-chloropyridin-2-yl)piperidine-4-carbonyl)piperazin-1-yl)ethoxy)-4-(4-methylthiazol-5-yl)benzyl)-1-((S)-2-(1-fluorocyclopropane-1-carboxamido)-3,3-dimethylbutanoyl)-4-hydroxypyrrolidine-2-carboxamide] | 69.4% | 99.3% |
| Cc1ncsc1-c1ccc(CNC(=O)[C@@H]2C[C@@H](O)CN2C(=O)[C@@H](NC(=O)C2(F)CC2)C(C)(C)C)c(OCCC2CCN(C(=O)C3CN(c4nccc(Sc5cnc(N6CCC(C)(CN)CC6)cn5)c4Cl)C3)CC2)c1 [Example 55, (2S,4R)—N-(2-(2-(1-(1-(4-((5-(4-(aminomethyl)-4-methylpiperidin-1-yl)pyrazin-2-yl)thio)-3-chloropyridin-2-yl)azetidine-3-carbonyl)piperidin-4-yl)ethoxy)-4-(4-methylthiazol-5-yl)benzyl)-1-((S)-2-(1-fluorocyclopropane-1-carboxamido)-3,3-dimethylbutanoyl)-4-hydroxypyrrolidine-2-carboxamide] | 27.5% | 95.0% |
| Cc1ncsc1-c1ccc(CNC(=O)[C@@H]2C[C@@H](O)CN2C(=O)[C@@H](NC(=O)C2(F)CC2)C(C)(C)C)c(OCCC2CCN(C(=O)C3CCN(c4nccc(Sc5cnc(N6CCC(C)(CN)CC6)cn5)c4Cl)CC3)CC2)c1 [Example 56, (2S,4R)—N-(2-(2-(1-(1-(4-((5-(4-(aminomethyl)-4-methylpiperidin-1-yl)pyrazin-2-yl)thio)-3-chloropyridin-2-yl)piperidine-4-carbonyl)piperidin-4-yl)ethoxy)-4-(4-methylthiazol-5-yl)benzyl)-1-((S)-2-(1-fluorocyclopropane-1-carboxamido)-3,3-dimethylbutanoyl)-4-hydroxypyrrolidine-2-carboxamide] | 55.8% | 98.6% |
